Test results from EP4417602A1, “SUBSTITUTED PYRAZOLE CARBOXAMIDES, SALTS THEREOF AND THEIR USE AS HERBICIDALLY ACTIVE SUBSTANCES” (Bayer AG, priority 2023, dated 2024).
Values belong to the compound of their own block, whether it stands above or below them.

Columns and labels:
ALOMY = assay: B. Herbicidal post-emergence action on harmful plants (Tables B); assay type: in vivo, Alopecurus myosuroides
Method: (§1) Seeds of mono- and dicotyledonous weed plants were placed in plastic pots in sandy loam soil (doubly sown with in each case one species of mono- or dicotyledonous weed plants per pot), covered with soil and cultivated in a greenhouse under controlled growth conditions. 2 to 3 weeks after sowing, the test plants were treated at the one-leaf stage. The compounds of the invention, formulated in the form of wettable powders (WP) or as emulsion concentrates (EC), were applied onto the green parts of the plants as aqueous suspension or emulsion with addition of 0.5% additive at a water application rate of 600 liters per hectare (converted). After the test plants had been kept in the greenhouse under optimum growth conditions for about 3 weeks, the activity of the preparations was rated visually in comparison to untreated controls. For example, 100% activity = the plants have died, 0% activity = like control plants. Tables B1 to B12, below, show the effects of selected compounds of the general formula (I) according to table 1 on various harmful plants and an application rate corresponding to 1280 g/ha or below obtained by the experimental procedure mentioned above. Table B1a: post-emergence activity at 1280g/ha against ABUTH in %

ORYZA = assay: D. Pre-emergence effects on crop plants (Tables D); assay type: in vivo, Oryza sativa; conditions: crop plant
Excerpt: Seeds of mono- and dicotyledonous weed plants and crop plants were sown, in plastic or organic planting pots, in sandy loam and covered with soil. The compounds according to the invention, formulated in the form of wettable powders (WP) or as emulsifiable concentrates (EC), were applied to the surface of the covering soil as aqueous suspension or emulsion, with the addition of 0.5% of an additive, at an application rate of 6001 of water/ha (converted).
Following treatment, the pots were placed in a greenhouse and kept under optimum growth conditions for the test plants. The visual grading of the damage to the test plants was carried out after ca. 3 weeks in comparison to untreated controls (herbicidal effect in percent (%): 100% effect = plants have died off, 0% effect = as control plants).
Tables D1 to D5 below show the effects of various compounds of the general formula (I) according to Table 1 on various crop plants and an application rate corresponding to 320 g/ha or below obtained by the experimental procedure mentioned above in Biological Examples, Section C. Table D1a: pre-emergence activity at 320g/ha against ZEAMX in %

VERPE = assay: A. Herbicidal pre-emergence action on harmful plants (Tables A); assay type: in vivo, Veronica persica; conditions: application rate 1280 g/ha; Table A11
Summary of the method: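 Greenhouse pre-emergence test: compound applied to the soil surface at 1280 g/ha or below, and herbicidal effect rated visually at ca. 3 weeks on a 0–100% scale against untreated plants.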

ABUTH = assay: B. Herbicidal post-emergence action on harmful plants (Tables B); assay type: in vivo, Abutilon theophrasti
Summary of the method: (§2)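 Activity was scored visually as % damage (100% = dead, 0% = like untreated) about 3 weeks after treatment. Plants at the one-leaf stage, 2-3 weeks old, were sprayed with WP/EC formulations plus 0.5% additive (600 L/ha water, up to 1280 g/ha). Plants were grown in sandy loam in a greenhouse.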

AMARE = assay: as above; assay type: in vivo, Amaranthus retroflexus; conditions: application rate 1280 g/ha; Table B8
Summary of the method: as §2

DIGSA = assay: as above; assay type: in vivo, Digitaria sanguinalis
Summary of the method: as §2

AVEFA = assay: C. Herbicidal pre-emergence action, weed and crop plants (Tables C); assay type: in vivo, Avena fatua; conditions: application rate 320 g/ha; Table C4
Excerpt: Seeds of mono- and dicotyledonous weed plants and crop plants were sown, in plastic or organic planting pots, in sandy loam and covered with soil. The compounds according to the invention, formulated in the form of wettable powders (WP) or as emulsifiable concentrates (EC), were applied to the surface of the covering soil as aqueous suspension or emulsion, with the addition of 0.5% of an additive, at an application rate of 6001 of water/ha (converted). Following treatment, the pots were placed in a greenhouse and kept under optimum growth conditions for the test plants. The visual grading of the damage to the test plants was carried out after ca. 3 weeks in comparison to untreated controls (herbicidal effect in percent (%): 100% effect = plants have died off, 0% effect = as control plants). Tables C1 to C12 below show the effects of selected compounds of the general formula (I) according to table 1 on various harmful plants and an application rate corresponding to 320 g/ha or below obtained by the experimental procedure mentioned above. Table C1: pre-emergence activity at 320g/ha against KCHSC in %

SETVI [1] = assay: B. Herbicidal post-emergence action on harmful plants (Tables B); assay type: in vivo, Setaria viridis; conditions: application rate 1280 g/ha; Table B5
Summary of the method: as §2

SETVI [2] = assay: E. Herbicidal post-emergence action, weed and crop plants (Tables E); assay type: in vivo, Setaria viridis; conditions: application rate 320 g/ha, visual assessment after ca. 3 weeks
Excerpt: (§3) Seeds of mono- and dicotyledonous weed plants and crop plants were sown, in plastic or organic planting pots, in sandy loam, covered with soil and grown in a greenhouse under controlled growth conditions. 2 to 3 weeks after sowing, the test plants were sprayed in the single-leaf stage. The compounds according to the invention, formulated in form of wettable powders (WP) or as emulsifiable concentrates (EC), were sprayed onto the green plant parts as aqueous suspension or emulsion, with the addition of 0.5% of an additive, at an application rate of 6001 of water/ha (converted). The test plants were placed in the greenhouse for ca. 3 weeks under optimum growth conditions, and then the effect of the preparations was assessed visually in comparison with untreated controls (herbicidal effect in percent (%): 100% effect = plants have died off, 0% effect = as control plants). Tables E1 to E7 below show the effects of selected compounds of the general formula (I) according to table 1 on various harmful plants and an application rate corresponding to 320 g/ha or below obtained by the experimental procedure mentioned above. Table E1: post-emergence activity at 320g/ha against ALOMY in %

LOLRI [3] = assay: B. Herbicidal post-emergence action on harmful plants (Tables B); assay type: in vivo, Lolium rigidum; conditions: application rate 1280 g/ha; Table B3
Method: as §1

LOLRI [4] = assay: E. Herbicidal post-emergence action, weed and crop plants (Tables E); assay type: in vivo, Lolium rigidum; conditions: application rate 320 g/ha, visual assessment after ca. 3 weeks
Excerpt: as §3

[5] = application rate 1280 g/ha, Table B9a
[6] = application rate 80 g/ha, Table D3b
[7] = application rate 320 g/ha, Table D3a
[8] = application rate 320 g/ha, treated at the one-leaf stage, rated visually after about 3 weeks vs untreated controls, 100% = the plants have died, 0% = like control plants
[9] = application rate 1280 g/ha, Table B1a
[10] = application rate 320 g/ha, Table B9b
[11] = application rate 1280 g/ha, Table B12a

pre-emergence activity against ORYZA (ORYZA; [6]): 0% | pre-emergence activity against ORYZA (ORYZA; [7]): 0%
SMILES: Cn1cc(C(=O)N2CCCC2Cc2ccc(F)cc2F)c(COc2ccccc2)n1 (racemic) [Example I-008]
post-emergence activity against ALOMY (ALOMY; [5]): 90%

pre-emergence activity against ORYZA (ORYZA; [6]): 0% | pre-emergence activity against ORYZA (ORYZA; [7]): 0%
SMILES: Cn1cc(C(=O)N2CCCC2Cc2ccccc2F)c(COc2ccccc2)n1 (racemic) [Example I-006]
pre-emergence activity against VERPE (VERPE): 100% | post-emergence activity against ABUTH (ABUTH; [8]): 90% | post-emergence activity against ABUTH (ABUTH; [9]): 90% | post-emergence activity against AMARE (AMARE): 90% | post-emergence activity against ALOMY (ALOMY; [10]): 90% | post-emergence activity against ALOMY (ALOMY; [5]): 90% | post-emergence activity against DIGSA (DIGSA; [11]): 90%

SMILES: COCc1nn(C)cc1C(=O)N1CCCC1Cc1ccccc1F (racemic) [Example I-002]
post-emergence activity against AMARE (AMARE): 90% | pre-emergence activity against AVEFA (AVEFA): 80%

SMILES: COCc1nn(C)cc1C(=O)N1CCCC1C(O)c1ccccc1F (single isomer, unassigned) [Example I-053]
post-emergence activity against SETVI (SETVI [1]): 90% | post-emergence activity against SETVI in % (SETVI [2]): 80%

SMILES: C=C(c1ccccc1F)C1CCCN1C(=O)c1cn(C)nc1COC (racemic) [Example I-023]
post-emergence activity against LOLRI (LOLRI [3]): 90% | post-emergence activity against DIGSA (DIGSA; [11]): 90%

SMILES: COCc1c(C(=O)N2CCCC2Cc2ccccc2Cl)cnn1C (racemic) [Example I-170]
post-emergence activity against LOLRI (LOLRI [3]): 90% | post-emergence activity against SETVI (SETVI [1]): 90% | post-emergence activity against ALOMY (ALOMY; [5]): 90% | post-emergence activity against LOLRI in % (LOLRI [4]): 80%

SMILES: COCc1nn(C)cc1C(=O)N1CCCC1Cc1ccccc1F (single isomer, unassigned) [Example I-003]
post-emergence activity against ABUTH (ABUTH; [8]): 90% | post-emergence activity against ABUTH (ABUTH; [9]): 90% | post-emergence activity against ALOMY (ALOMY; application rate 80 g/ha, Table B9c): 100% | post-emergence activity against ALOMY (ALOMY; [10]): 100% | post-emergence activity against ALOMY (ALOMY; [5]): 100% | post-emergence activity against DIGSA (DIGSA; application rate 80 g/ha, Table B12c): 100% | post-emergence activity against DIGSA (DIGSA; application rate 320 g/ha, Table B12b): 100% | post-emergence activity against DIGSA (DIGSA; [11]): 100% | pre-emergence activity against AVEFA (AVEFA): 90% | post-emergence activity against LOLRI in % (LOLRI [4]): 80% | post-emergence activity against SETVI in % (SETVI [2]): 80%

SMILES: COCc1c(C(=O)N2CCCC2Cc2ccccc2F)cnn1C (single isomer, unassigned) [Example I-157]
pre-emergence activity against VERPE (VERPE): 90%
